What all share (format): cell-based
One assay concerns the target human TLR8 (Homo sapiens (Human), UniProt Q9NR97). Kind of assay: TLR8 inhibition reporter assay (HEK-Blue, SEAP). The following applies: HEK-Blue cells overexpressing human TLR8, R848 15.9 μM stimulation. The method in brief: (§1)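 Percent inhibition of agonist-induced SEAP secretion was scored against DMSO-only and reference-inhibitor controls. Stimulation lasted 22 h at 37 °C following 30 min compound pre-exposure (0.05 nM–50 μM); ligands were gardiquimod 7.5 μM, R848 15.9 μM and ODN2006 5 nM for TLR7, 8 and 9.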
(A reporter such as luciferase makes a cellular process visible.)

For a further assay, the target named is human TLR7 (Homo sapiens (Human), UniProt Q9NYK1). Kind of assay: TLR7 inhibition reporter assay (HEK-Blue, SEAP). The settings on record: HEK-Blue cells overexpressing human TLR7, gardiquimod 7.5 μM stimulation. In outline: as §1
Sequence of human TLR7 (Q9NYK1 27-1049): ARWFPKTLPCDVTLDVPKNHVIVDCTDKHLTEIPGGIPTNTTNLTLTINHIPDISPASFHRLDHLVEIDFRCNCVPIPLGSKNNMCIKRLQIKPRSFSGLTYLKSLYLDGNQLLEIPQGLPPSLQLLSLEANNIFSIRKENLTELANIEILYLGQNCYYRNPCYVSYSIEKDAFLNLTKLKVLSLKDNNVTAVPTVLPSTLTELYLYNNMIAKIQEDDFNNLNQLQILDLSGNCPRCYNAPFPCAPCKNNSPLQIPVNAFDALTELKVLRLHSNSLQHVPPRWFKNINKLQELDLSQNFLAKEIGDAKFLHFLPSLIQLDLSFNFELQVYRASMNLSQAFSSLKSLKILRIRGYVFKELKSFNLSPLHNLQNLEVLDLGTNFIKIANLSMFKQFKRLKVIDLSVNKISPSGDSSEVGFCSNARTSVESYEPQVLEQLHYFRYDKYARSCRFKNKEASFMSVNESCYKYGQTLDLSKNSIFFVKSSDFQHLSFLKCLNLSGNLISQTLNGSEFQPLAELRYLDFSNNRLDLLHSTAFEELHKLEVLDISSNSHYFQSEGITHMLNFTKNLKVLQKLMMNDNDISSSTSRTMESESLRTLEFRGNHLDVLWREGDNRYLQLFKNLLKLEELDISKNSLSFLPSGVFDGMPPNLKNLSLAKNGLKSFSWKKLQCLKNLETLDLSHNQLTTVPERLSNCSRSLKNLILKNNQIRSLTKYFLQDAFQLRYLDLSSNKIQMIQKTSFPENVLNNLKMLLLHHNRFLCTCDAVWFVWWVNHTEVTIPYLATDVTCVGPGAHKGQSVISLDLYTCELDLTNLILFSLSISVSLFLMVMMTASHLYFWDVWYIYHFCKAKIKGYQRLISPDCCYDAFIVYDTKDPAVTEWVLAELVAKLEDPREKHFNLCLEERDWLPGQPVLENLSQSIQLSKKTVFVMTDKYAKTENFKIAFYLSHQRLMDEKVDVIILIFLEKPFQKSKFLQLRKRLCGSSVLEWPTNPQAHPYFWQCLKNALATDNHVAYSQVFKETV
For a further assay, the target named is human TLR9 (Homo sapiens (Human), UniProt Q9NR96). Kind of assay: TLR9 inhibition reporter assay (HEK-Blue, SEAP). The following applies: HEK-Blue cells overexpressing human TLR9, ODN2006 5 nM stimulation. The method in brief:
as §1

Broadly, the IC50 is the concentration that inhibits the measured activity by half. A lower IC50 goes with greater potency in that assay.

Sequence of human TLR8 (Q9NR97 27-1041): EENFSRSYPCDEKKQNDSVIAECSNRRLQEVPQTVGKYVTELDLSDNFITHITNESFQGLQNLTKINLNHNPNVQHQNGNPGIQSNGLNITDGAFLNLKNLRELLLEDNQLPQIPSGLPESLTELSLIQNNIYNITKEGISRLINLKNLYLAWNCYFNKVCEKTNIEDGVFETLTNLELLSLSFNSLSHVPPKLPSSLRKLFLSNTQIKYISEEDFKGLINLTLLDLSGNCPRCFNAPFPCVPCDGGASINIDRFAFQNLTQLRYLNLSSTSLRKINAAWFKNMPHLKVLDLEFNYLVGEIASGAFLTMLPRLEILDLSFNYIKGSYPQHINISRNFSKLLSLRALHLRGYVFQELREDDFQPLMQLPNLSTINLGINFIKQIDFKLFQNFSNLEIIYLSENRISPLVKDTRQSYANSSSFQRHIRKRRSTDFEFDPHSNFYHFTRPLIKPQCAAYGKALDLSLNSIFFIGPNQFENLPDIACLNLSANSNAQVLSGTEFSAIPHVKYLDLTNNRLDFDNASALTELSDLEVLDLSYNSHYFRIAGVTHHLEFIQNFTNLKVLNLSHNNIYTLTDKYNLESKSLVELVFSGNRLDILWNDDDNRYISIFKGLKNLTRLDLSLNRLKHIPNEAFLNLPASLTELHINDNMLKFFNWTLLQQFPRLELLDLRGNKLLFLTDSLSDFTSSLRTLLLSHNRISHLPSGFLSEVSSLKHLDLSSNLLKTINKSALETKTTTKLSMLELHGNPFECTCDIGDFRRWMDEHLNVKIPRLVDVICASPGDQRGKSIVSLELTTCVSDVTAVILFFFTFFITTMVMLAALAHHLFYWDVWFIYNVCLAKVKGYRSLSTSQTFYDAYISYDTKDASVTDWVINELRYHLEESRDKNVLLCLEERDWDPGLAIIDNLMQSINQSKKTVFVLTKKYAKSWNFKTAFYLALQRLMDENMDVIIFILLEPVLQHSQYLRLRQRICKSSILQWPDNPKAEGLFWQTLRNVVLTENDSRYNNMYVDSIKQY
Sequence of human TLR9 (Q9NR96 26-1032): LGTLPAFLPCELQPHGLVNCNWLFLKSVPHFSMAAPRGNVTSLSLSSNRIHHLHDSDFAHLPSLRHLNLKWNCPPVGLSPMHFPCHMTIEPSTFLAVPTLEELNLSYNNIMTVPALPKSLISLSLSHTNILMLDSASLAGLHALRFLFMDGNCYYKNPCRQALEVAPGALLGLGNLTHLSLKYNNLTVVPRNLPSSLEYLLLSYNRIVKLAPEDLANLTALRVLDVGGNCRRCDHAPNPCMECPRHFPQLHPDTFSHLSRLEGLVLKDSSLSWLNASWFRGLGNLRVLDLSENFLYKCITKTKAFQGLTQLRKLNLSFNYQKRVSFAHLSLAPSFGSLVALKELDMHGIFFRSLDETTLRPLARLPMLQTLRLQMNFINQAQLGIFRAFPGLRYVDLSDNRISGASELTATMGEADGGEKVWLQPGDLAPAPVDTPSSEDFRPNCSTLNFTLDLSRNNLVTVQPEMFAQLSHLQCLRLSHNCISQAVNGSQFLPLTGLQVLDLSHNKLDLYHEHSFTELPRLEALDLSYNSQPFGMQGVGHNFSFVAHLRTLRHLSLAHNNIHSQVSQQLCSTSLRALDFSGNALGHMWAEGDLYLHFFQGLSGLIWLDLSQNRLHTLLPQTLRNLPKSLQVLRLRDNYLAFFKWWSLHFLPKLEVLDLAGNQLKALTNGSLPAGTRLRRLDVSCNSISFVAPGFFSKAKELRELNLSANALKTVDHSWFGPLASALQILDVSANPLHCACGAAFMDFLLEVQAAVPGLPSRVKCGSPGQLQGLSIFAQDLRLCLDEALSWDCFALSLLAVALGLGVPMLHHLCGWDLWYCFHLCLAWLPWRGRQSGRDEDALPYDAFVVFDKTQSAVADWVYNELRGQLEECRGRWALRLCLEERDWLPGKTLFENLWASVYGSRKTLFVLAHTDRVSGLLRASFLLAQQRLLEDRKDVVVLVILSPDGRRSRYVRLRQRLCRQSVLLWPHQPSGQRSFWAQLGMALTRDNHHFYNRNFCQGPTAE

On to `Cc1cc(-c2[nH]c3ccc(-c4ccnc(N5CCN(C(C)C)CC5)c4)cc3c2C(C)C)cc(C)n1` [Example 326, 2-(2,6-dimethylpyridin-4-yl)-3-isopropyl-5-(2-(4-isopropylpiperazin-1-yl)pyridin-4-yl)-1H-indole], for which the IC50 at human TLR8 worked out at 13 nM; against human TLR7, 23 nM; against human TLR9, 303 nM.
On to `Cc1cc(-c2[nH]c3ccc(-c4cc(NC(=O)OC(C)(C)C)c5nccn5c4)cc3c2C(C)C)cc(C)n1` [Example 303, tert-butyl (6-(2-(2,6-dimethylpyridin-4-yl)-3-isopropyl-1H-indol-5-yl)imidazo[1,2-a]pyridin-8-yl)carbamate], for which the half-inhibitory concentration (IC50) against human TLR8 came to 163 nM; against human TLR7, 172 nM; against human TLR9, 33400 nM.
On to `Cc1cc(-c2[nH]c3ccc(-c4ccc(N)nn4)cc3c2C(C)C)ccn1` [Example 360, 6-(3-isopropyl-2-(2-methylpyridin-4-yl)-1H-indol-5-yl)pyridazin-3-amine], for which the half-inhibitory concentration (IC50) on human TLR8 turned out to be 16 nM; against human TLR7, 58 nM; at human TLR9, 27000 nM.
Turning to `Cc1cc(-c2[nH]c3ccc(-c4cnc(NC(=O)CN(C)C)cn4)cc3c2C(C)C)ccn1` [Example 365, 2-(dimethylamino)-N-(5-(3-isopropyl-2-(2-methylpyridin-4-yl)-1H-indol-5-yl)pyrazin-2-yl)acetamide], the concentration for half-maximal inhibition (IC50) was found to be 1.6 nM at human TLR8, 7.3 nM at human TLR7 and 1290 nM on human TLR9.
For the compound `Cc1cc(-c2[nH]c3ccc(-c4nnc(C(=O)NC5CCN(C(C)C)CC5)o4)cc3c2C(C)C)ccn1` [Example 58, 5-(3-isopropyl-2-(2-methylpyridin-4-yl)-1H-indol-5-yl)-N-(1-isopropylpiperidin-4-yl)-1,3,4-oxadiazole-2-carboxamide], the half-inhibitory concentration (IC50) at human TLR8 is 3.8 nM; at human TLR7, 50 nM; against human TLR9 it was 303 nM.
Regarding `COc1ccc(-c2[nH]c3ccc(-c4cccc(N5CCN(C(C)C)CC5)c4)cc3c2C(C)C)cc1OC` [Example 370, 2-(3,4-dimethoxyphenyl)-3-isopropyl-5-(3-(4-isopropylpiperazin-1-yl)phenyl)-1H-indole], the concentration for half-maximal inhibition (IC50) at human TLR8 stood at 93 nM; against human TLR7 it was 3920 nM; at human TLR9, 4840 nM.
In the same order, the values of `CC(C)c1c(-c2ccnc3[nH]ncc23)[nH]c2ccc(-c3nnc(CNCC(C)(C)C)o3)cc12` [Example 149, N-((5-(3-isopropyl-2-(1H-pyrazolo[3,4-b]pyridin-4-yl)-1H-indol-5-yl)-1,3,4-oxadiazol-2-yl)methyl)-2,2-dimethylpropan-1-amine] are 50 nM, 7280 nM and greater than 50000 nM.
Taken in the same sequence, the figures for `CCc1c(-c2ccc(OC)c(OC)c2)[nH]c2ccc(-c3noc([C@@H](N)Cc4c[nH]cn4)n3)cc12` [Example 440, (S)-1-(3-(2-(3,4-dimethoxyphenyl)-3-ethyl-1H-indol-5-yl)-1,2,4-oxadiazol-5-yl)-2-(1H-imidazol-4-yl)ethan-1-amine] were 123 nM, 647 nM and 19900 nM.
For `COCCN(C)Cc1nnc(-c2ccc3[nH]c(-c4ccc(OC)c(OC)c4)c(C(C)C)c3c2)o1` [Example 121, N-((5-(2-(3,4-dimethoxyphenyl)-3-isopropyl-1H-indol-5-yl)-1,3,4-oxadiazol-2-yl)methyl)-2-methoxy-N-methylethan-1-amine], the results for the IC50 against human TLR8, against human TLR7 and on human TLR9 were 166 nM, 108 nM and greater than 50000 nM, respectively.
Regarding `CCOCCNCc1nnc(-c2ccc3[nH]c(-c4ccc(OC)c(OC)c4)c(C(C)C)c3c2)o1` [Example 111, N-((5-(2-(3,4-dimethoxyphenyl)-3-isopropyl-1H-indol-5-yl)-1,3,4-oxadiazol-2-yl)methyl)-2-ethoxyethan-1-amine], the concentration for half-maximal inhibition (IC50) against human TLR8 was 266 nM; against human TLR7, 157 nM; against human TLR9, greater than 50000 nM.
Taken in the same sequence, the figures for `COc1ccc(-c2[nH]c3ccc(-c4ccc(N5CCCN(C)CC5)cc4)cc3c2C(C)C)cc1OC` [Example 380, 2-(3,4-dimethoxyphenyl)-3-isopropyl-5-(4-(4-methyl-1,4-diazepan-1-yl)phenyl)-1H-indole] were 35 nM, 881 nM and 2920 nM.
In the same order, the values of `Cc1cc(-c2[nH]c3ccc(-c4nnc(C5CCCN(C(C)C)C5)[nH]4)cc3c2C(C)C)ccn1` (stereo not drawn) [Example 205, 3-isopropyl-5-(5-(1-isopropylpiperidin-3-yl)-4H-1,2,4-triazol-3-yl)-2-(2-methylpyridin-4-yl)-1H-indole] are 5.5 nM, 32 nM and 243 nM.
In the same order, the values of `CCc1c(-c2ccc(OC)c(OC)c2)[nH]c2ccc(-c3noc(CCNC)n3)cc12` [Example 460, 2-(3-(2-(3,4-dimethoxyphenyl)-3-ethyl-1H-indol-5-yl)-1,2,4-oxadiazol-5-yl)-N-methylethan-1-amine] are 7.3 nM, 539 nM and 2680 nM.
As for `CCc1c(-c2ccnc(C)c2)[nH]c2ccc(-c3noc(CCC4CCN(C(C)C)CC4)n3)cc12` [Example 449, 3-(3-ethyl-2-(2-methylpyridin-4-yl)-1H-indol-5-yl)-5-(2-(1-isopropylpiperidin-4-yl)ethyl)-1,2,4-oxadiazole], the figures for the half-inhibitory concentration (IC50) at human TLR8, at human TLR7 and against human TLR9 were 37 nM, 239 nM and 1360 nM, respectively.
In the same order, the values of `COc1ccc(-c2[nH]c3ccc(-c4nnc(C5CCCN(C)C5)o4)cc3c2C(C)C)cc1OC` (stereo not drawn) [Example 46, 2-(2-(3,4-dimethoxyphenyl)-3-isopropyl-1H-indol-5-yl)-5-(1-methylpiperidin-3-yl)-1,3,4-oxadiazole] are 6.2 nM, 39 nM and 1080 nM.
Regarding `CC(C)c1c(-c2ccnc3n[nH]cc23)[nH]c2ccc(-c3nnc(CN4CCCC4)o3)cc12` [Example 128, 2-(3-isopropyl-2-(2H-pyrazolo[3,4-b]pyridin-4-yl)-1H-indol-5-yl)-5-(pyrrolidin-1-ylmethyl)-1,3,4-oxadiazole], the IC50 at human TLR8 came out at 167 nM; against human TLR7, 1100 nM; on human TLR9 it was 34100 nM.
Taken in the same sequence, the figures for `Cc1cc(-c2[nH]c3ccc(-c4nnc(CCc5cccnc5)o4)cc3c2C(C)C)ccn1` [Example 262, 2-(3-isopropyl-2-(2-methylpyridin-4-yl)-1H-indol-5-yl)-5-(2-(pyridin-3-yl)ethyl)-1,3,4-oxadiazole] were 60 nM, 286 nM and 5890 nM.
Taken in the same sequence, the figures for `Cc1cc(-c2[nH]c3ccc(-c4nnc(C5CCCN(C(C)C)C5)o4)cc3c2CC(F)F)cc(C)n1` (stereo not drawn) [Example 327, 2-(3-(2,2-difluoroethyl)-2-(2,6-dimethylpyridin-4-yl)-1H-indol-5-yl)-5-(1-isopropylpiperidin-3-yl)-1,3,4-oxadiazole] were 10 nM, 26 nM and 216 nM.
On to `COc1ccc(-c2[nH]c3ccc(-c4ccc(OC5CCN(C)CC5)cc4)cc3c2C(C)C)cc1OC` [Example 387, 2-(3,4-dimethoxyphenyl)-3-isopropyl-5-(4-((1-methylpiperidin-4-yl)oxy)phenyl)-1H-indole], for which the IC50 against human TLR8 was determined as 22 nM; at human TLR7 it was 34 nM; at human TLR9 it was 3900 nM.
Taken in the same sequence, the figures for `COc1ccc(-c2[nH]c3ccc(-c4cccc(C(=O)NC5CCN(C(C)C)CC5)c4)cc3c2C(C)C)cc1OC` [Example 8, 3-(2-(3,4-dimethoxyphenyl)-3-isopropyl-1H-indol-5-yl)-N-(1-isopropylpiperidin-4-yl)benzamide] were 29 nM, 114 nM and 1810 nM.
Taken in the same sequence, the figures for `Cc1cc(-c2[nH]c3ccc(-c4nnc(C5CCN(Cc6ccccc6)CC5)[nH]4)cc3c2C(C)C)ccn1` [Example 163, 5-(5-(1-benzylpiperidin-4-yl)-4H-1,2,4-triazol-3-yl)-3-isopropyl-2-(2-methylpyridin-4-yl)-1H-indole] were 8.6 nM, 33 nM and 690 nM.
In the same order, the values of `COc1ccc(-c2[nH]c3ccc(-c4nnc(CN5CCCN(C(C)=O)CC5)o4)cc3c2C(C)C)cc1OC` [Example 119, 1-(4-((5-(2-(3,4-dimethoxyphenyl)-3-isopropyl-1H-indol-5-yl)-1,3,4-oxadiazol-2-yl)methyl)-1,4-diazepan-1-yl)ethan-1-one] are 99 nM, 106 nM and 14400 nM.
Take `Cc1cc(-c2[nH]c3ccc(-c4nc5c(s4)CN(CC(=O)N(C)C)CC5)cc3c2C(C)C)cc(C)n1` [Example 309, 2-(2-(2-(2,6-dimethylpyridin-4-yl)-3-isopropyl-1H-indol-5-yl)-6,7-dihydrothiazolo[5,4-c]pyridin-5(4H)-yl)-N,N-dimethylacetamide]: the results for the concentration for half-maximal inhibition (IC50) on human TLR8, on human TLR7 and against human TLR9 were 3.5 nM, 24 nM and 5620 nM, respectively.
Regarding `COc1ccc(-c2[nH]c3ccc(-c4ccc(CCCN5CCOCC5)cc4)cc3c2C(C)C)cc1OC` [Example 398, 4-(3-(4-(2-(3,4-dimethoxyphenyl)-3-isopropyl-1H-indol-5-yl)phenyl)propyl)morpholine], the IC50 is 2120 nM on human TLR8, 559 nM at human TLR7 and 2550 nM at human TLR9.
Take `Cc1cc(-c2[nH]c3ccc(-c4cc5c(s4)CN(C(=O)CN(C)C)CC5)cc3c2C(C)C)cc(C)n1` [Example 341, 2-(dimethylamino)-1-(2-(2-(2,6-dimethylpyridin-4-yl)-3-isopropyl-1H-indol-5-yl)-4,7-dihydrothieno[2,3-c]pyridin-6(5H)-yl)ethan-1-one]: the half-maximal inhibitory concentration (IC50) was determined as 5.9 nM against human TLR8, 6.4 nM against human TLR7 and 295 nM on human TLR9.

Values taken from patent publication US11420958B2, “Aryl and heteroaryl substituted indole compounds” (BRISTOL-MYERS SQUIBB COMPANY, priority 2017, dated 2022).
